{"source": "paper PMC11410929", "about": "“Biochemical and crystallographic studies of L,D-transpeptidase 2 from Mycobacterium tuberculosis with its natural monomer substrate” (Communications Biology, 2024)", "system": "LdtMt2^C354S", "type": "biochemical, Mycobacterium tuberculosis", "data": [{"substance": "GlcNAc-MurNAc-L-Ala-D-iGluNH2-m-DAPNH2-D-Ala-D-Ala [Compound 4]", "values": [{"measurement": "Product formation with LdtMt2^C354S", "value": "no product formation was observed"}]}]}
